Patent US12139458B2, “(2,5-dioxopyrrolidin-1-yl)(phenyl)-acetamide derivatives and their use in the treatment of neurological diseases” (UNIWERSYTET JAGIELLONSKI, priority 2019, dated 2024)

Columns and labels:
[1] = tested on: male white Swiss mice (CD-1); assay: Capsaicin-induced pain model; type: in vivo; details: Mus musculus, ip; i.p. 30 min before capsaicin, mice
Method: (§1) The tests were carried out using male white Swiss mice (CD-1) weighing 18-25 g. All procedures were carried out in accordance with Polish and international guidelines on ethics of animal testing, after obtaining appropriate institutional approval. The study group consisted of 8-10 animals. The tested and reference substances were administered intraperitoneally 30 minutes before given test as suspension in 1% aqueous solution of Tween. All tests/models were carried out based on the procedures described in the specialist literature: the formalin test (Beirith, A.; Santos, A. R.; Calixto, J. B.; Rodrigues, A. L.; Creczynski-Pasa, T. B. Eur. J. Pharmacol. 1998, 345, 233-245), the model of capsaicin-induced pain (Mogilski, S.; Kubacka, M.; Redzicka, A.; Kazek, G.; Dudek, M.; Malinka, W.; Filipek, B. Pharmacol. Biochem. Behav. 2015, 133, 99-110), the model of oxaliplatin-induced neuropathic pain—von Frey test (Sałat, K.; Cios, A.; Wyska, E.; Satat, R.; Mogilski, S.; Filipek, B.; Wigȩkowski, K.; Malawska, B. Pharmacol. Biochem. Behav. 2014, 122, 173-181).
This test assesses the time of licking and/or biting the hind paw into which mice were injected subplantarly with capsaicin in an amount of 1.6 μg, dissolved in 20 μl of a mixture containing 0.9% saline and ethanol (5% of the final volume). Observation was carried out […] after capsaicin administration. Test compounds were administered intraperitoneally 30 minutes before administration of capsaicin. Inhibition of nociceptive reaction—shortening the time of licking and biting the paw was the measure of antinociceptive activity of the compound tested.
Valproic acid (VPA) was the reference compound in this test. […] Compound 6 was administered at 20 mg/kg, 30 mg/kg and 40 mg/kg. Test compounds were administered as a suspension in 1.0% Tween 80 solution. The control group consisted of mice treated with vehicle alone (1% Tween 80 solution). The nociceptive reaction time in this group was 43.29±3.21 seconds.

[2] = tested on: male white Swiss mice (CD-1); assay: Oxaliplatin-induced neuropathic pain, von Frey test; type: in vivo; details: for pain threshold, von Frey test: 7 days after OXPT, after OXPT 1.89±0.04 g; for pain threshold as % of the initial value, von Frey test: initial value 3.36±0.10 g
Method: as §1
Oxaliplatin (OXPT) was dissolved in a 5% glucose solution, followed by intraperitoneal administration to mice. A single dose of 10 mg/kg was used. Tactile and thermal (sensation of low temperature) allodynia associated with oxaliplatin-induced neuropathy are characterized by two phases. The early phase is acute and develops soon after administration of the OXPT, while the symptoms of the later (chronic) phase (associated with neurons damage), develops after a few days. Behavioral tests in mice with OXPT-induced neuropathy were carried out 7 days after its administration, i.e. in the late phase of neuropathy.
The influence of compounds tested on tactile allodynia was determined in the von Frey test. The animals were placed individually in cages with a reticulated bottom, 60 minutes before the beginning of the experiment, in order to adapt to the new environment. An electronic Von Frey apparatus (Electronic Von Frey, Bioseb, France) was used to assess the pain threshold for mechanical stimuli. The von Frey's fiber was applied to the underside of the right mouse paw with increasing pressure. […] The measurement was performed 3 times for each mouse, with at least 30 seconds between the measurements, then the results obtained were averaged. The entire study was performed 3 times: before OXPT administration to determine the baseline pain threshold; 7 days after administration of OXPT, and before administration of test compounds, to assess developing neuropathy by setting a new pain threshold; 30 minutes after administration of the compounds to determine their influence developed neuropathy.
Compound 6 was administered at doses of 10, 20 and 30 mg/kg.

[3] = tested on: HepG2 cells; assay: ATP level, CellTiter-Glo Luminescent Cell Viability Assay; type: cell-based; details: 1-100 μM, 3 h exposure
Method: In vitro hepatotoxicity assessment. The studies were conducted using the hepatoma HepG2 liver cancer cell line, which is used to assess the hepatotoxicity of the substance in vitro. A classic MTS colorimetric assay from Promega (Madison, WI, USA) was used to investigate the effect of 6 on HepG2 cell viability and proliferation. The compound was tested at four concentrations in the range (0.1-100 μM). Doxorubicin at a concentration of 1 μM was used as a reference cytostatic. In addition, the reference mitochondrial toxin carbonyl cyanide m-chlorophenylhydrazone (CCCP) at a concentration of 10 μM was also used (FIG. 10). […] In addition, cell viability was reduced to just 84% of the control, indicating a trace toxic effect of this compound on HepG2 cell lines. […]
CellTiter-Glo Luminescent Cell Viability Assay from Promega (Madison, WI, USA) was used to study ATP levels in HepG2 cells. Prior to testing, the cells were plated into white, 96-well transparent bottom culture plates from Corning (Tewksbury, MA, USA), adapted for luminescence measurement at a concentration of 1.5×10^4 cells per well. […] Luminescence measurement was carried out with an EnSpire PerkinElmer (Waltham, MA, USA) reader after adding CellTiter-Glo Luminescent Cell Viability Assay in an amount of 100 μl to the culture. Statistical significance was calculated by one-way ANOVA and Bonferroni analysis using GraphPad Prism 5. […]

O=C(C(c1ccccc1)N1C(=O)CCC1=O)N1CCN(c2cccc(C(F)(F)F)c2)CC1 (racemic) [Compound 6, 1-(2-Oxo-1-phenyl-2-(4-(3-(trifluoromethyl)phenyl)piperazin-1-yl)ethyl)pyrrolidine-2,5-dione]
ED50 [1]: 17.9 mg/kg
pain threshold, von Frey test ([2]; 10 mg/kg i.p.): 2.87 ± 0.12 g
pain threshold as % of the initial value, von Frey test ([2]; 10 mg/kg i.p.): 85.41%
pain threshold, von Frey test ([2]; 20 mg/kg i.p.): 3.83 ± 0.13 g
pain threshold as % of the initial value, von Frey test ([2]; 20 mg/kg i.p.): 113.98%
pain threshold, von Frey test ([2]; 30 mg/kg i.p.): 4.17 ± 0.17 g
pain threshold as % of the initial value, von Frey test ([2]; 30 mg/kg i.p.): 124.10%
effect on ATP levels in HepG2 cells [3]: no statistically significant effect
